The source made the active and inactive calls.
Columns and labels:
[1] = biological target: T1, Short transient receptor potential channel 4 (Mus musculus, UniProt Q9QUQ5); experiment: mouse TRPC4 channel inhibitors, dose response, cell-based, HEK293 TRPC4/mu-opioid, Fluo-4 calcium (AID 434942); assay type: functional;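 also: potency of inhibitors blocking the TRPC4 calcium response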
T1 sequence (Q9QUQ5 whole entry): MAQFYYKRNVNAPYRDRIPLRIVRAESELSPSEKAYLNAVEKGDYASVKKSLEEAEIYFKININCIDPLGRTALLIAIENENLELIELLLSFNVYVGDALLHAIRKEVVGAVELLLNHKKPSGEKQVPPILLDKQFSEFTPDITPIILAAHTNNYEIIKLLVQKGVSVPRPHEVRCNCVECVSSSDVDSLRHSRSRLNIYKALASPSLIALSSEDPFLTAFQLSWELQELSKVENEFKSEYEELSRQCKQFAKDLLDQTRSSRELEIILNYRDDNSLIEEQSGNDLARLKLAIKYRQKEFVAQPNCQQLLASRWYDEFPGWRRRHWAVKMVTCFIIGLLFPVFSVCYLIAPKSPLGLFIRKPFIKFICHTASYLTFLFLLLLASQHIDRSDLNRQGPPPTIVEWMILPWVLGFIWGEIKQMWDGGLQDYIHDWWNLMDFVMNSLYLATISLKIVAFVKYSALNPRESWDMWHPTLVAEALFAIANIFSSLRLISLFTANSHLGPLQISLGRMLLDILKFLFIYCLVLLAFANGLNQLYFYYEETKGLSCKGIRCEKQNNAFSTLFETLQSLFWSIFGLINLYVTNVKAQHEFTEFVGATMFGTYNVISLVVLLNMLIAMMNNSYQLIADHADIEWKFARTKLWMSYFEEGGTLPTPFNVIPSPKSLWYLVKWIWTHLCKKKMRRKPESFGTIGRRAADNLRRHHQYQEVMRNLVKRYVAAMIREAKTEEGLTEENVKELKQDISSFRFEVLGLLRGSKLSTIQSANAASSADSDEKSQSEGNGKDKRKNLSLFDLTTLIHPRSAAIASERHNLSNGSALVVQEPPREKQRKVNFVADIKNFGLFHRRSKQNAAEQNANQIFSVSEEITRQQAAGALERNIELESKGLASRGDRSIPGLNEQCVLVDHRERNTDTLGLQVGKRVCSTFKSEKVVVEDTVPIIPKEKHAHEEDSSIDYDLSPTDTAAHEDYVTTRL

[2] = biological target: T2, Carboxy-terminal domain RNA polymerase II polypeptide A small phosphatase 1 (Homo sapiens, UniProt Q9GZU7); experiment: inhibitors of CTDSP1, concentration-response testing, biochemical assay, absorbance-based, actives from ultra-high-throughput screening (AID 540297); assay type: functional
T2 sequence (Q9GZU7 whole entry): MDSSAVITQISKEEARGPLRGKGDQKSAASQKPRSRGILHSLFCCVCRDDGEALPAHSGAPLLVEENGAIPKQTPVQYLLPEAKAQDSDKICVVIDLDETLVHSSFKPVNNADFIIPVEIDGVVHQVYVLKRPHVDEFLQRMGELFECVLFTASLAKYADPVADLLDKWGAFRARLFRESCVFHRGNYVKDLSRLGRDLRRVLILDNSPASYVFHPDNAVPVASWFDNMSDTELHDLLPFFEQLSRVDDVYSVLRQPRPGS

[3] = biological target: T3, DNA repair and recombination protein RAD54-like (Homo sapiens, UniProt Q92698); experiment: inhibitors of human RAD54 branch migration, confirmation, biochemical, fluorescence, cherry-picked samples, dose series (AID 651657); assay type: functional
T3 sequence (Q92698 whole entry): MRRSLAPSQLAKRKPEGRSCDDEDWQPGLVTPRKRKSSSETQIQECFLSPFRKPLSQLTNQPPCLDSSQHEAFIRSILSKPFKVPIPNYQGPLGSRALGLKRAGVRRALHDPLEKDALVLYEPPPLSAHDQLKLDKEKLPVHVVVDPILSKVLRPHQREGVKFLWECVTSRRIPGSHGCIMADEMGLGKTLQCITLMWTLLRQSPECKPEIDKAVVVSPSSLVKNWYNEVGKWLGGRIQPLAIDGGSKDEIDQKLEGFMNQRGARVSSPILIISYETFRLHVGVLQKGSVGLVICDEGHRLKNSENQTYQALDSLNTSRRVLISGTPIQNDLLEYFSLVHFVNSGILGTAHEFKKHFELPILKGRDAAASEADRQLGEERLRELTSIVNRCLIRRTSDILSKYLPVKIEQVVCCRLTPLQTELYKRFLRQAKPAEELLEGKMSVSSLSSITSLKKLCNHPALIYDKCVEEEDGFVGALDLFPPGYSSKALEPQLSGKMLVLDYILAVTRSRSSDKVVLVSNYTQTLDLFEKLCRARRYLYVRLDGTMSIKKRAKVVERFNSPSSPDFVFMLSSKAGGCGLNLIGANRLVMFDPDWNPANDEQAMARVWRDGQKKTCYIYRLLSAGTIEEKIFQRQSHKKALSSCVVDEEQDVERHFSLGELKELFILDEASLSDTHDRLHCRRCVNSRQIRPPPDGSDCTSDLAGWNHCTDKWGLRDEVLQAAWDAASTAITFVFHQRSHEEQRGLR

[4] = biological target: Induced myeloid leukemia cell differentiation protein Mcl-1 (Homo sapiens, UniProt Q07820); assay type: functional
[5] = growth suppression of beta-catenin-knockout colon cells, dose response, cell-based, HCT116, human colon tumor (AID 1045); assay type: functional;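 also: HCT116 colon tumor cells with beta catenin knocked out; cells exposed to compound for 60 hours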
[6] = growth suppression of PTEN-null colon cells, dose response, cell-based, HCT116 PTEN knockout (AID 1047); assay type: functional;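 also: HCT116 colon tumor cells with PTEN knocked out; cells exposed to compound for 60 hours before readout; potency for loss of cell viability measured by luminescence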
[7] = ZM109 Env clade C HIV-1 fusion inhibitors, dose response, HeLa effector, CEM target cells, luciferase, cherry-pick (AID 652058); assay type: functional, cell-based
[8] = inhibitors of HIV Env-driven cell fusion, dose response, cherry-pick (AID 652057); assay type: functional, cell-based
[9] = off-target signal loss in HeLa-CEM21 co-culture – HeLa F-luc CTL cells, cherry-picked, counter-screen for HIV-1 Env fusion inhibitor project, dose response (AID 652040); assay type: functional, cell-based;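 also: potency for signal decrease marking cytotoxic or nonspecific inhibition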
Vero = experiment: cells; assay type: functional; settings: Chlorocebus sabaeus
HEK293 = experiment: inhibitors of LMP1-driven NF-kB reporter, dose response, cell-based, HEK293, luciferase, cherry-pick (AID 588343); assay type: functional; settings: Homo sapiens
[10] = biological target: T4, High affinity choline transporter 1 (Homo sapiens, UniProt Q9GZV3); experiment: CHT inhibitors, dose response, cell-based, 5-point CRC, membrane potential dye (AID 504840); assay type: functional
T4 sequence (Q9GZV3 whole entry): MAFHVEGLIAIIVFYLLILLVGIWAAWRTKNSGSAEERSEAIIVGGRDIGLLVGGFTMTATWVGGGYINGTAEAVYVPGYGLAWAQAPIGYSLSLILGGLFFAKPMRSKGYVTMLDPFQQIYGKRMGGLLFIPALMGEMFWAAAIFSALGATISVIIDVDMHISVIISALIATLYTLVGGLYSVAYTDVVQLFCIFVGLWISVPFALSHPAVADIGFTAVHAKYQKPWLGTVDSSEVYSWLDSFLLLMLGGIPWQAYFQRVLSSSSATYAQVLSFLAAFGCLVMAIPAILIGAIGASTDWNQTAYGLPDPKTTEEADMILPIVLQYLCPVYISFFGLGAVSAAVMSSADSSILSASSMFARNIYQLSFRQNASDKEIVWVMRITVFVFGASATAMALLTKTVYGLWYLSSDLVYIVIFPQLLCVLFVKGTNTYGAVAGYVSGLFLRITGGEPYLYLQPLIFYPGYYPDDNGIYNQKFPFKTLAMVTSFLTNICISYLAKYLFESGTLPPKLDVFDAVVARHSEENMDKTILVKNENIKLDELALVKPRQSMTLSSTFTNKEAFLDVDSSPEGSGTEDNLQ

Paired box protein Pax-8 = Paired box protein Pax-8 (Homo sapiens, UniProt Q06710); experiment: inhibitors of PAX8-driven TPO luciferase reporter, dose response, RMG-I cells, cherry-pick (AID 687027); assay type: functional, cell-based;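 also: luciferase reporter driven by Pax8 target thyroperoxidase promoter measured by SteadyGlo luminescence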
H9c2 = experiment: cells; assay type: functional, cell-based; settings: Rattus norvegicus, H9c2, Myocardium;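 also: confirmatory concentration-response retest of ultra-high-throughput screening hits for modulation of myocardial damage; cell death induced by hydrogen peroxide oxidative stress; compound pretreatment for 60 min then peroxide exposure for 2 h; potency is for protecting the cells against peroxide damage rather than for killing them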
[11] = biological target: T5, Ubiquitin-conjugating enzyme E2 N (Homo sapiens, UniProt P61088); assay type: functional;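 also: Dose-response confirmation in a TR-FRET assay detecting UBC13-driven polyubiquitin chain formation, inhibition measured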
T5 sequence (P61088 whole entry): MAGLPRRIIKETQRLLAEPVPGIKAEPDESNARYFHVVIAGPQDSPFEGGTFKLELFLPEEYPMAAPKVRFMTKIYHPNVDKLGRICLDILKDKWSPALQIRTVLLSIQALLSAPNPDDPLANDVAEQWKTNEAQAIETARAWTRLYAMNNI

Chain of Induced myeloid leukemia cell differentiation protein Mcl-1 (Q07820 whole entry): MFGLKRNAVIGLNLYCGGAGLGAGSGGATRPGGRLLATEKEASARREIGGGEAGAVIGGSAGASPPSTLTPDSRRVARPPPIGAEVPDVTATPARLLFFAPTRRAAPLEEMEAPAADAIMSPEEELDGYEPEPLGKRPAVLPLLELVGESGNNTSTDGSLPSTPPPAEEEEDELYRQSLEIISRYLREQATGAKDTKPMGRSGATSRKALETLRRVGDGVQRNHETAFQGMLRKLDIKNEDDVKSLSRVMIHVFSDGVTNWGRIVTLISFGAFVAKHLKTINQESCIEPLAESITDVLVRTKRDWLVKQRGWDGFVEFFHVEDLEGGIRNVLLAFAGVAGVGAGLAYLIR
Chain of Paired box protein Pax-8 (Q06710 whole entry): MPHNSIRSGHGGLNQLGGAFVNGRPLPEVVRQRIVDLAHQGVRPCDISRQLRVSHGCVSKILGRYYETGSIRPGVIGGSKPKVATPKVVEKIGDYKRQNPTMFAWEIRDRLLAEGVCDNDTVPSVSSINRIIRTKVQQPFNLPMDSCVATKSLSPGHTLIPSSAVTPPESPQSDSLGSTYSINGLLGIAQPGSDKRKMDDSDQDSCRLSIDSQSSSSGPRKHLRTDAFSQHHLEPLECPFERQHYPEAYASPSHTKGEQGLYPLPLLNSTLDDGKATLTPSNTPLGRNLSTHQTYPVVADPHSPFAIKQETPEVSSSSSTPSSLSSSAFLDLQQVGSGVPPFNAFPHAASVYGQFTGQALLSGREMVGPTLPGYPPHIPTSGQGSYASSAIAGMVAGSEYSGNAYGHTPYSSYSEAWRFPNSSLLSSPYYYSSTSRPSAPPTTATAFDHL

Cc1ccc(Sc2ccc(CO)cc2[N+](=O)[O-])cc1
EC50 [1]: 3.35 µM (active)

O=C(COC(=O)c1ccccc1NCCO)Nc1cccc(S(=O)(=O)NC2=NCCCCC2)c1
IC50 [2]: 10.2 µM (active)

CN1CCN(c2cc(N3CCNCC3)ccc2[N+](=O)[O-])CC1
AC50 [3]: 14.5 µM (active)

COc1cccc(C(=O)Nc2ccc3nc(N4CCN(c5ncccn5)CC4)cc(C)c3c2)c1OC
IC50 [4]: 5.6 µM (active)
EC50 [5]: 6.95 µM (active)
EC50 [6]: 5.74 µM (active)

CN1CCc2ccccc2Cc2[nH]c3ccccc3c2CC1
AC50 [7]: 8.06 µM (active)
AC50 [8]: 25.6 µM (active)
AC50 [9]: > 70 µM (inactive)

COCCN(C(=O)Cn1nnc2ccccc21)C(C(=O)NC1CCCCC1)c1ccc(OC)cc1OC (stereo not drawn)
IC50 [2]: 14.9 µM (active)

Cc1cc2[nH]c3ccccc3c2c(C)n1
EC50 [1]: 1.68 µM (active)

CC(C)CC1C(=O)N(Cc2cn(CC3CCCCC3)nn2)CCS(=O)(=O)N1Cc1ccc(-c2ccc(F)nc2)cc1 (stereo not drawn)
CC50 (Vero): 19.6 µM (active)
AC50 (HEK293): 32.8 µM (active)

CC(=O)N(c1ccc(Cl)cc1)c1c[nH]c2ccccc12
EC50 [1]: 18.8 µM (active)

CC1=C(C(=O)OCCOc2ccccc2)C(c2ccsc2)NC(=O)N1C (stereo not drawn)
IC50 [10]: 13.2 µM (active)

N#Cc1ccc(NC(=O)COC(=O)C2CCC2)cc1
AC50 (Paired box protein Pax-8): 21.7 µM (active)

COc1cc(NC(=O)c2csc(-c3ccncc3)n2)cc(C(=O)Nc2cccc(C(F)(F)F)c2)c1
IC50 [10]: 6.44 µM (active)
IC50 (H9c2): > 79 µM (inactive)

COC(=O)c1cccc(NC(S)=Nc2cccc(Cl)c2Cl)c1
EC50 [1]: 8.41 µM (active)

CCNc1nc(NCC)n2c(SCC(=O)Nc3cccc(Cl)c3)nnc2n1
IC50 [2]: 16.2 µM (active)

CCN(CC)S(=O)(=O)c1ccc(C(=O)OCC(=O)NCc2ccco2)cc1
IC50 [2]: 11.1 µM (active)

COc1ccc(S(=O)(=O)c2cnc(S)nc2O)cc1Cl
IC50 [2]: 8.64 µM (active)

CN(CCNC(=O)CCCOc1cc(=O)n(C)c2ccccc12)Cc1ccccc1
IC50 [11]: > 20 µM (inactive)
